US12291518B2, “Thyroid hormone receptor agonists and use thereof” (Eccogene Inc., priority 2020, dated 2025)

What was measured:
THR beta-LBD = molecular target: T1, THR beta-LBD (Homo sapiens, UniProt P10828); assay: THR-β Coactivator Peptide Recruitment Assay (LanthaScreen TR-FRET); type: biochemical; conditions: TR-FRET coactivator recruitment, THR beta-LBD 0.5 nM; for EC50: read-out: THRβ EC50
T1 construct: THR beta-LBD (the final concentration is 0.5 nM) was added to the 384-well assay plate; purchased Invitrogen PV4686
T1 sequence (P10828 217-461 limits assumed): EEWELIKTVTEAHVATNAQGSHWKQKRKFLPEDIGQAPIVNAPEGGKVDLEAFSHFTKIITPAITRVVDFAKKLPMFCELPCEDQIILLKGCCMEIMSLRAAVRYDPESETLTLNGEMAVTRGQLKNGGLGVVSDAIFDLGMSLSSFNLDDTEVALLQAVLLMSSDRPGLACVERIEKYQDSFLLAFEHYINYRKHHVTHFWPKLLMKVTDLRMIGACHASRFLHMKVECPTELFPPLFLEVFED
Procedure: (§1) A time-resolved FRET (TR-FRET) assay was used to test representative compounds of the application.
(§2) THR-β Coactivator Peptide Recruitment Assay were conducted by using Invitrogen's LanthaScreen™ TR-FRET Thyroid Receptor beta Assay Kit (Catalog no. PV4686). Binding of an agonist to the nuclear receptor causes a subsequent binding of a coactivator peptide, resulting in fluorescence energy transfer from the labelled nuclear receptor to the proximal coactivator peptide, which reflects the binding affinity of the agonist and the nuclear receptor. The assay was conducted by following the manufacturer's instructions. Briefly, THR beta-LBD (the final concentration is 0.5 nM) was added to the 384-well assay plate containing test compounds, followed by addition of Fluorescein-SRC2-2 coactivator peptide and terbium (Tb)-labeled anti-GST antibody. The final concentration of THR beta-LBD, Fluorescein-SRC2-2 coactivator peptide and terbium (Tb)-labeled anti-GST antibody is 0.5 nM, 0.1 nM and 2 nM, respectively. After a gentle mix and incubation at room temperature for 2 h, the signal was read on the EnVision Multilabel Plate Reader at wavelengths of 520 nm and 495 nm. TR-FRET ratio was calculated by dividing the emission signal at 520 nm and the emission signal at 495 nm, and then was plotted against a sigmoidal dose response curve (four parameters, GraphPad™ Prism 8) to determine the EC50 value.

THR alpha-LBD = molecular target: T2, THR alpha-LBD (Homo sapiens, UniProt P10827); assay: THR-α Coactivator Peptide Recruitment Assay (LanthaScreen TR-FRET); type: biochemical; conditions: TR-FRET coactivator recruitment, THR alpha-LBD 0.25 nM; for EC50: read-out: THRα EC50
T2 construct: except that THR alpha-LBD of a final concentration 0.25 nM was used; purchased Invitrogen PV4687
T2 sequence (P10827 163-410 isoform P10827-2 limits assumed, other chains not shown): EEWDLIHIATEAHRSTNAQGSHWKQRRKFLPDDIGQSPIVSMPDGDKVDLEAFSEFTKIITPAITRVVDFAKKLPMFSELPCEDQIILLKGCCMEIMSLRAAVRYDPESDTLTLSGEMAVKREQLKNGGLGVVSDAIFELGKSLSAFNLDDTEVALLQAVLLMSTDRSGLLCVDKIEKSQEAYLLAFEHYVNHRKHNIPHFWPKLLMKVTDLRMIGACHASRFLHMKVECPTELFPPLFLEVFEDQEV
Procedure: as §1, §2
THR-α Coactivator Peptide Recruitment Assay were conducted by using Invitrogen's LanthaScreen™ TR-FRET Thyroid Receptor alpha Assay Kit (Catalog no. PV4687), following the same method described above except that THR alpha-LBD of a final concentration 0.25 nM was used.

THRβ Emax (THR beta-LBD)	EC50 (THR beta-LBD) [nM]	THRα Emax (THR alpha-LBD)	EC50 (THR alpha-LBD) [nM]	SMILES
C (<75)	2 to 20	B (40~85)	200 to 1000	O=c1[nH]c(=O)n(-c2cc(Cl)c(Oc3ccc(O)c(S(=O)(=O)N[C@@H]4CC[C@@H](O)C4)c3)c(Cl)c2)nc1C(F)F (racemic) [Compound 75, 5-(2,6-dichloro-4-(6-(difluoromethyl)-3,5-dioxo-4,5-dihydro-1,2,4-triazin-2(3H)-yl)phenoxy)-2-hydroxy-N-((1R,3R)-3-hydroxycyclopentyl)benzenesulfonamide]
A (90~110)	< 2	A (85~110)	2 to 200	O=C(c1cc(Oc2c(Cl)cc(-n3nc(Cl)c(=O)[nH]c3=O)cc2Cl)ccc1O)N1C[C@H]2CC[C@@H]1C2 (single isomer, unassigned) [Compound 7]
B (75~90)	< 2	B (40~85)	2 to 200	O=C(c1cc(Oc2c(Cl)cc(-n3nc(Cl)c(=O)[nH]c3=O)cc2Cl)ccc1O)N1C[C@@H]2CC[C@H]1C2 (single isomer, unassigned) [Compound 8]
C (<75)	20 to 100	B (40~85)	200 to 1000	CN1C[C@@H](NS(=O)(=O)c2cc(Oc3c(Cl)cc(-n4nc(C(F)F)c(=O)[nH]c4=O)cc3Cl)ccc2O)CC1=O (single isomer, unassigned) [Compound 34]
C (<75)	20 to 100	B (40~85)	200 to 1000	CN1C[C@H](NS(=O)(=O)c2cc(Oc3c(Cl)cc(-n4nc(C(F)F)c(=O)[nH]c4=O)cc3Cl)ccc2O)CC1=O (single isomer, unassigned) [Compound 35]
C (<75)	20 to 100	B (40~85)	200 to 1000	O=c1[nH]c(=O)n(-c2cc(Cl)c(Oc3cc(S(=O)(=O)N[C@@H]4CC[C@@H]4O)c(O)cn3)c(Cl)c2)nc1C(F)F (stereo in doubt) [Compound 170, 2-[2,6-dichloro-4-[6-(difluoromethyl)-3,5-dioxo-1,2,4-triazin-2-yl]phenoxy]-5-hydroxy-N-[(1R,2S)-2-hydroxycyclobutyl]pyridine-4-sulfonamide]
C (<75)	20 to 100	C (<40)	200 to 1000	O=c1[nH]c(=O)n(-c2cc(Cl)c(Oc3cc(S(=O)(=O)N[C@@H]4CC[C@H]4O)c(O)cn3)c(Cl)c2)nc1C(F)F (stereo in doubt) [Compound 171, 2-[2,6-dichloro-4-[6-(difluoromethyl)-3,5-dioxo-1,2,4-triazin-2-yl]phenoxy]-5-hydroxy-N-[(1R,2R)-2-hydroxycyclobutyl]pyridine-4-sulfonamide]
A (90~110)	2 to 20	B (40~85)	2 to 200	O=C(NC1CCC1)c1cc(Oc2c(Cl)cc(-n3nc(C(F)F)c(=O)[nH]c3=O)cc2Cl)ccc1O [Compound 1, N-cyclobutyl-5-[2,6-dichloro-4-[6-(difluoromethyl)-3,5-dioxo-1,2,4-triazin-2-yl]phenoxy]-2-hydroxy-benzamide]
B (75~90)	2 to 20	B (40~85)	200 to 1000	O=C(N[C@H]1C[C@H](O)C1)c1cc(Oc2c(Cl)cc(-n3nc(C(F)F)c(=O)[nH]c3=O)cc2Cl)ccc1O [Compound 2, 5-(2,6-dichloro-4-(6-(difluoromethyl)-3,5-dioxo-4,5-dihydro-1,2,4-triazin-2(3H)-yl)phenoxy)-2-hydroxy-N-((1r,3r)-3-hydroxycyclobutyl)benzamide]
A (90~110)	20 to 100	B (40~85)	> 1000	O=C(NC1CC(F)(F)C1)c1cc(Oc2c(Cl)cc(-n3nc(C(F)(F)F)c(=O)[nH]c3=O)cc2Cl)ccc1O [Compound 3, 5-[2,6-dichloro-4-[3,5-dioxo-6-(trifluoromethyl)-1,2,4-triazin-2-yl]phenoxy]-N-(3,3-difluorocyclobutyl)-2-hydroxy-benzamide]
